In ChEMBL document CHEMBL1135294, “Synthesis of a molecular mimic of the Glc1Man9 oligoside as potential inhibitor of calnexin binding to DeltaF508 CFTR protein” (Bioorg Med Chem Lett, 2002):

Target: T1, Calnexin (Homo sapiens, UniProt P27824)
T1 sequence (P27824 whole entry): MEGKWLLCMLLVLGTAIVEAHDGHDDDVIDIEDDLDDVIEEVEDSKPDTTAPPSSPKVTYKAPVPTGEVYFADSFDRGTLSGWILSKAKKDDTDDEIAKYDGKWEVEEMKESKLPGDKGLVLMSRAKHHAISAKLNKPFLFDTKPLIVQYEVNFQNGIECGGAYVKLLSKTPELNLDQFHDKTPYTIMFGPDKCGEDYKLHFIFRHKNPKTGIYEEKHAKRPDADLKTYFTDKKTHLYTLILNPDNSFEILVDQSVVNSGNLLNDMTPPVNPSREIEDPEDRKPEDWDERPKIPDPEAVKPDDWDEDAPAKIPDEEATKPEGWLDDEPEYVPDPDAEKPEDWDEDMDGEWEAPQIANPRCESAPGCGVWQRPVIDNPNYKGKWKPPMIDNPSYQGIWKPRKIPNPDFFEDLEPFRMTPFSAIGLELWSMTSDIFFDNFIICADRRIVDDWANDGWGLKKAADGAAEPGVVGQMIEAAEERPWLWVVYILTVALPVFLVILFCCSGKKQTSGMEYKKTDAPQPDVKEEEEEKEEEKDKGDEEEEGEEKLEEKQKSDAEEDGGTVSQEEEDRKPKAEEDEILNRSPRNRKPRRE
Test: Compound was tested for its ability to inhibit binding of [3H]- Glc1Man9 GlcNAc2 to GST-fused calnexin immobilized on glutathione-agarose

- IC50: 300 µM
SMILES: O=C(NCC(CNC(=O)OCCNC(=O)O[C@H]1O[C@@H](CO)[C@@H](O)[C@H](O)[C@H]1O)OC(=O)NC(O)NC(=O)OCCOCCNC(=O)O[C@H]1C[C@@H](CO)[C@@H](O)[C@H](O[C@H]2O[C@@H](CO)[C@@H](O)[C@H](O)[C@@H]2O)[C@H]1O)OCCNC(=O)O[C@H]1O[C@@H](CO)[C@@H](O)[C@H](O)[C@H]1O (stereo partly specified)
